Several values for one entry are separate records, joined by “and”; a condition that tells them apart may be missing. Equal entries are not always repeated. Where two headings read alike, the source gives them in different places.
Key:
[1] = for Desethyl-CNS: as obtained
[2] = cited from earlier work
[3] = Table 3, after 2 weeks at 55° C.
[4] = after maintaining for 2 weeks (oven at 55° C.)

CCOc1nc2cccc(C(=O)OC(C)OC(=O)OC3CCCCC3)c2n1Cc1ccc(-c2ccccc2-c2nnn[nH]2)cc1 (centres unmarked) [Slurried fine particle size sample, candesartan cilexetil]
CNS desethyl ([1]; 2 weeks, HPLC): 0.10 w/w % and 0.06 w/w % | CNS desethyl ([1]; T = 0, HPLC): 0.08 w/w % and 0.03 w/w %

CCOc1nc2cccc(C(=O)OC(C)OC(=O)OC3CCCCC3)c2n1Cc1ccc(-c2ccccc2-c2nnn[nH]2)cc1 (centres unmarked) [Sample 1B, candesartan cilexetil]
1-N-ethyl CNS [1, 3]: 0.04 w/w % | 2-N-ethyl CNS [1, 3]: 0.15 w/w % | CNS desethyl [1, 3]: 0.20 w/w %

CCOc1nc2cccc(C(=O)OC(C)OC(=O)OC3CCCCC3)c2n1Cc1ccc(-c2ccccc2-c2nnn[nH]2)cc1 (centres unmarked) [candesartan cilexetil Form I, candesartan cilexetil]
level of desethyl-CNS [1, 4]: 0.07 % w/w by HPLC | Desethyl-CNS ([1]; before storage): 0.03 % by area HPLC

CCOc1nc2cccc(C(=O)OC(C)OC(=O)OC3CCCCC3)c2n1Cc1ccc(-c2ccccc2-c2nnn[nH]2)cc1 (centres unmarked) [Product, candesartan cilexetil]
1-N-ethyl CNS ([1]; Table 3, before storage): LTDL (LTDL means less than detection limit) | 2-N-ethyl CNS ([1]; Table 3, before storage): 0.03 w/w % | CNS desethyl ([1]; Table 3, before storage): 0.05 w/w % | level of desethyl-CNS ([1]; before storage): 0.05 % w/w by HPLC

CCOc1nc2cccc(C(=O)OC(C)OC(=O)OC3CCCCC3)c2n1Cc1ccc(-c2ccccc2-c2nnn[nH]2)cc1 (centres unmarked) [Sample 1, candesartan cilexetil]
1-N-ethyl CNS ([1]; Table 3, before storage): LTDL (LTDL means less than detection limit) | 2-N-ethyl CNS ([1]; Table 3, before storage): LTDL (LTDL means less than detection limit) | CNS desethyl ([1]; Table 3, before storage): 0.04 w/w %

CCOc1nc2cccc(C(=O)OC(C)OC(=O)OC3CCCCC3)c2n1Cc1ccc(-c2ccccc2-c2nnn[nH]2)cc1 (centres unmarked) [stable micronized candesartan Form I, candesartan cilexetil]
desethyl-CNS level ([1]; after maintaining for 2 weeks): 0.06 % area by HPLC | level of desethyl-CNS ([1]; before storage): 0.03 % w/w by HPLC

CCOc1nc2cccc(C(=O)OC(C)OC(=O)OC3CCCCC3)c2n1Cc1ccc(-c2ccccc2-c2nnn[nH]2)cc1 (centres unmarked) [micronized CNS-Cryst, candesartan cilexetil]
level of desethyl-CNS [1, 4]: 0.41 % w/w by HPLC | level of desethyl-CNS ([1]; before storage): 0.24 % w/w by HPLC

CCOc1nc2cccc(C(=O)OC(C)OC(=O)OC3CCCCC3)c2n1Cc1ccc(-c2ccccc2-c2nnn[nH]2)cc1 (centres unmarked) [micronized material, candesartan cilexetil]
level of desethyl-CNS [1, 4]: 0.14 % w/w by HPLC | level of desethyl-CNS ([1]; before storage): 0.04 % w/w by HPLC

CCOc1nc2cccc(C(=O)OC(C)OC(=O)OC3CCCCC3)c2n1Cc1ccc(-c2ccccc2-c2nnn[nH]2)cc1 (centres unmarked) [Fine particle size, candesartan cilexetil]
2-N-ethyl CNS ([1]; 2 weeks, HPLC): 0.09 w/w % and 0.29 w/w % | CNS desethyl ([1]; 2 weeks, HPLC): 0.14 w/w % and 0.41 w/w % | CNS desethyl ([1]; T = 0, HPLC): 0.04 w/w % and 0.24 w/w %

CCOc1nc2cccc(C(=O)OC(C)OC(=O)OC3CCCCC3)c2n1Cc1ccc(-c2ccccc2-c2nnn[nH]2)cc1 (centres unmarked) [candesartan cilexetil]
CNS-desethyl ([1]; fine particle size, time of slurry 3 hr, 2 weeks): 0.10 w/w % | CNS-desethyl ([1]; fine particle size, time of slurry 3 hr, T = 0): 0.07 w/w % | CNS-desethyl ([1]; fine particle size, time of slurry 6 hr, 2 weeks): 0.07 w/w % | CNS-desethyl ([1]; fine particle size, time of slurry 6 hr, T = 0): 0.06 w/w % | CNS-desethyl ([1]; fine particle size, time of slurry 9 hr, 2 weeks): 0.06 w/w % | CNS-desethyl ([1]; fine particle size, time of slurry 9 hr, T = 0): 0.05 w/w % | CNS-desethyl ([1]; fine particle size, time of slurry 13 hr, 2 weeks): 0.06 w/w % | CNS-desethyl ([1]; fine particle size, time of slurry 13 hr, T = 0): 0.05 w/w % | CNS-desethyl ([1]; fine particle size, time of slurry 23 hr, 2 weeks): 0.05 w/w % | CNS-desethyl ([1]; fine particle size, time of slurry 23 hr, T = 0): 0.04 w/w %

CCOc1nc2cccc(C(=O)OC(C)OC(=O)OC3CCCCC3)c2n1Cc1ccc(-c2ccccc2-c2nnn[nH]2)cc1 (centres unmarked) [Product B, candesartan cilexetil]
1-N-ethyl CNS [1, 3]: LTDL (LTDL means less than detection limit) | 2-N-ethyl CNS [1, 3]: 0.03 w/w % | CNS desethyl [1, 3]: 0.05 w/w %

CCOc1nc2cccc(C(=O)OC(C)OC(=O)OC3CCCCC3)c2n1Cc1ccc(-c2ccccc2-c2nnn[nH]2)cc1 (centres unmarked) [stable candesartan cilexetil Form I, candesartan cilexetil]
level of desethyl-CNS ([1]; after maintaining for 2 weeks (oven at 55° C.), listed as obtained product): 0.10 % w/w by HPLC | Desethyl-CNS ([1]; before storage): 0.08%

CCOc1nc2cccc(C(=O)OC(C)OC(=O)OC3CCCCC3)c2n1Cc1ccc(-c2ccccc2-c2nnn[nH]2)cc1 (racemic) [Candesartan cilexetil, (±)-1-[[(cyclohexyloxy)carbonyl]oxy]ethyl-2-ethoxy-1-[[2′-(1H-tetrazol-5-yl)[1,1 ′biphenyl]-4-yl]methyl]-1H-benzimidazole-7-carboxylate]
solubility in methanol ([2]; methanol): sparingly soluble | solubility in water ([2]; water): sparingly soluble | CNS-desethyl ([1]; time of slurry 2 hr, 2 weeks): 0.07 w/w % | CNS-desethyl ([1]; time of slurry 2 hr, T = 0): 0.03 w/w % | CNS-desethyl ([1]; time of slurry 20 hr, 2 weeks): 0.03 w/w % | CNS-desethyl ([1]; time of slurry 20 hr, T = 0): LTDL (LTDL means less than detection limit)
